From patent US11925650B2, “Antibacterial chemical compound, its manufacturing method and its use thereof” (National Taiwan University, priority 2022, dated 2024)
Where two headings read alike, the source gives them in different places.

Legend:
[1] = tested on: S. Typhimurium 14028; experiment: Anti-intracellular Salmonella activity in infected RAW264.7 cells (HCA); assay type: cell-based, Salmonella Typhimurium; settings: for Selectivity ratio (IC50/EC50): IC50 RAW264.7 / EC50 S. Typhimurium 14028
[2] = tested on: RAW264.7; experiment: Cytotoxicity in RAW264.7 cells (HCA, MTT cell viability assay); assay type: cell-based
Description: The cell viability was evaluated using HCA and an MTT cell viability assay, and the data are expressed as a percentage relative to the untreated control and are presented as the mean±SD (n=3 per group).

[3] = Salmonella enterica, TYPHIMURIUM, RAW264.7, read-out: EC50 (μM) S. Typhimurium 14028, intracellular Salmonella in infected RAW264.7 cells
[4] = Mus musculus, RAW264.7, read-out: IC50 (μM) RAW264.7
[5] = Salmonella enterica, TYPHIMURIUM, intracellular Salmonella in infected RAW264.7 cells, read-out: EC50 (μM) S. Typhimurium 14028
[6] = Mus musculus, cytotoxicity, RAW264.7 cells, read-out: IC50 (μM) RAW264.7

Molecule	Selectivity ratio (IC50/EC50) [1]	EC50 [1, 3] [µM]	IC50 [2, 4] [µM]	EC50 [1, 5] [µM]	IC50 [2, 6] [µM]	EC50 ([1]; intracellular Salmonella in infected RAW264.7 cells, read-out: EC50 (μM) S. Typhimurium 14028) [µM]	IC50 ([2]; cytotoxicity, RAW264.7 cells, read-out: IC50 (μM) RAW264.7) [µM]
CCCCCNC1=Nc2ccccc2Oc2ccc(Cl)cc21 [SW8, 2-chloro-N-pentyldibenzo[b,f][1,4]oxazepin-11-amine]	1.3	54.1	72.7				
Clc1ccc2c(c1)C(NCCCN1CCCC1)=Nc1cccnc1N2 [SW29, 8-chloro-N-(3-(pyrrolidin-1-yl)propyl)-11H-benzo[e]pyrido[3,2-b][1,4]diazepin-6-amine]	18.8			5.3	101		
CC(C)CCNC1=Nc2ccccc2Oc2ccc(Cl)cc21 [SW18, 2-chloro-N-isopentyldibenzo[b,f][1,4]oxazepin-11-amine]	1.3	55.1	70.1				
CN(C)CCNC1=Nc2ccccc2Oc2ccc(Cl)cc21 [SW1, N1-(2-chlorodibenzo[b,f][1,4]oxazepin-11-yl)-N2,N2-dimethylethane-1,2-diamine]	9.5	3.6	34.6				
Clc1ccc2c(c1)C(NCCN1CCCCC1)=Nc1cccnc1N2 [SW21, 8-chloro-N-(2-(piperidin-1-yl)ethyl)-11H-benzo[e]pyrido[3,2-b][1,4]diazepin-6-amine]	11.0			5.8	63.6		
Oc1ccc(CCNC2=Nc3ccccc3Oc3ccc(Cl)cc32)cc1 [SW12, 4-(2-((2-chlorodibenzo[b,f][1,4]oxazepin-11-yl)amino)ethyl)phenol]	1.6	33.5	52.1				
c1ccc2c(c1)N=C(NCCCN1CCCC1)c1ccccc1N2 [SW33, N-(3-(pyrrolidin-1-yl)propyl)-5H-dibenzo[b,e][1,4]diazepin-11-amine]	213.4	0.7	143				
CN(C)CCNC1=Nc2cccnc2Nc2ccc(Cl)cc21 [SW27, N1-(8-chloro-11H-benzo[e]pyrido[3,2-b][1,4]diazepin-6-yl)-N2,N2-dimeth ylethane-1,2-diamine]	>13.9			6.5	> 90		
O=C1CCCN1CCCNC1=Nc2ccccc2Oc2ccc(Cl)cc21 [SW23, 1-(3-((2-chlorodibenzo[b,f][1,4]oxazepin-11-yl)amino)propyl)pyrrolidin-2-one]	>1.3	> 90	> 90				
c1ccc2c(c1)N=C(NCCN1CCCCC1)c1ccccc1N2 [SW35, N-(2-(piperidin-1-yl)ethyl)-5H-dibenzo[b,e][1,4]diazepin-11-amine]	29.3	3.8	111				
Clc1ccc2c(c1)C(NCCc1cccnc1)=Nc1ccccc1O2 [SW5, 2-chloro-N-(2-(pyridin-3-yl)ethyl)dibenzo[b,f][1,4]oxazepin-11-amine]	1.9	38.2	74				
CCC(CC)NC1=Nc2ccccc2Oc2ccc(Cl)cc21 [SW17, 2-chloro-N-(pentan-3-yl)dibenzo[b,f][1,4]oxazepin-11-amine]	2.6	28.5	72.8				
Clc1ccc2c(c1)C(NCc1ccccc1)=Nc1ccccc1O2 [SW9, N-benzyl-2-chlorodibenzo[b,f][1,4]oxazepin-11-amine]	3.1	19.7	60.8				
Cc1cc2c(s1)Nc1ccccc1N=C2NCCN1CCNCC1 [SW41, 2-methyl-N-(2-(piperazin-1-yl)ethyl)-10H-benzo[b]thieno[2,3-e][1,4]diazepin-4-amine]	26.8	3.9	105				
Clc1ccc2c(c1)C(NCCc1ccncc1)=Nc1ccccc1O2 [SW16, 2-chloro-N-(2-(pyridin-4-yl)ethyl)dibenzo[b,f][1,4]oxazepin-11-amine]	2.8	18.5	51.1				
Cc1cc2c(s1)Nc1ccccc1N=C2NCCN1CCCCC1 [SW38, 2-methyl-N-(2-(piperidin-1-yl)ethyl)-10H-benzo[b]thieno[2,3-e][1,4]diazepin-4-amine]	22.4	1.6	36.5				
2-chloro-11-(3-(3,4-dichlorophenyl)propyl)dibenzo[b,f][1,4]oxazepine [SW15]						31.1	82.7
Clc1ccc2c(c1)C(NCCCN1CCCCC1)=Nc1ccccc1O2 [SW26, 2-chloro-N-(3-(piperidin-1-yl)propyl)dibenzo[b,f][1,4]oxazepin-11-amine]	14.6	1.1	16.1				

Molecule	Selectivity ratio (IC50/EC50) [1]	EC50 [1, 3] [µM]	IC50 [2, 4] [µM]	EC50 [1, 5] [µM]	IC50 [2, 6] [µM]	EC50 ([1]; intracellular Salmonella in infected RAW264.7 cells, read-out: EC50 (μM) S. Typhimurium 14028) [µM]	IC50 ([2]; cytotoxicity, RAW264.7 cells, read-out: IC50 (μM) RAW264.7) [µM]
Cc1cc2c(s1)Nc1ccccc1N=C2NCCN(C)C [SW39, N1,N1-dimethyl-N2-(2-methyl-10H-benzo[b]thieno[2,3-e][1,4]diazepin-4-yl)ethane-1,2-diamine]	72.5	1.7	122				
CN1CCCC1CCNC1=Nc2ccccc2Oc2ccc(Cl)cc21 (stereo not shown) [SW6, 2-chloro-N-(2-(1-methylpyrrolidin-2-yl)ethyl)dibenzo[b,f][1,4]oxazepin-11-amine]	18.9	1.2	23				
CN1CCCC1CCNC1=Nc2cccnc2Nc2ccc(Cl)cc21 (stereo not shown) [SW25, 8-chloro-N-(2-(1-methylpyrrolidin-2-yl)ethyl)-11H-benzo[e]pyrido[3,2-b][1,4]diazepin-6-amine]	26.2			3.3	85.5		
Clc1ccc2c(c1)C(NCCN1CCOCC1)=Nc1ccccc1O2 [SW4, 2-chloro-N-(2-morpholinoethyl)dibenzo[b,f][1,4]oxazepin-11-amine]	2.6	32	84.7				
Clc1ccc2c(c1)C(NCCN1CCCC1)=Nc1cccnc1N2 [SW28, 8-chloro-N-(2-(pyrrolidin-1-yl)ethyl)-11H-benzo[e]pyrido[3,2-b][1,4]diazepin-6-amine]	6.8			9.3	63.2		
Clc1ccc2c(c1)C(NCCN1CCCCC1)=Nc1ccccc1O2 [SW3, 2-chloro-N-(2-(piperidin-1-yl)ethyl)dibenzo[b,f][1,4]oxazepin-11-amine]	5.1	4.3	22.2				
Fc1ccc(CCNC2=Nc3ccccc3Oc3ccc(Cl)cc32)cc1 [SW19, 2-chloro-N-(4-fluorophenethyl)dibenzo[b,f][1,4]oxazepin-11-amine]	1.8	61.5	112				
Cc1cc2c(s1)Nc1ccccc1N=C2NCCCN(C)C [SW43, N1,N1-dimethyl-N3-(2-methyl-10H-benzo[b]thieno[2,3-e][1,4]diazepin-4-yl)propane-1,3-diamine]	82.1	1.2	102				
Clc1ccc2c(c1)C(NCCCN1CCCCC1)=Nc1cccnc1N2 [SW32, 8-chloro-N-(3-(piperidin-1-yl)propyl)-11H-benzo[e]pyrido[3,2-b][1,4]diazepin-6-amine]	16.4			6.4	105		
Clc1ccc2c(c1)C(NCCCN1CCCC1)=Nc1ccccc1O2 [SW22, 2-chloro-N-(3-(pyrrolidin-1-yl)propyl)dibenzo[b,f][1,4]oxazepin-11-amine]	14.8	1.1	16.3				
Cc1cc2c(s1)Nc1ccccc1N=C2NCCCN1CCCC1 [SW42, 2-methyl-N-(3-(pyrrolidin-1-yl)propyl)-10H-benzo[b]thieno[2,3-e][1,4]diazepin-4-amine]	82.6	0.9	76.4				
CCCNC1=Nc2ccccc2Oc2ccc(Cl)cc21 [SW13, 2-chloro-N-propyldibenzo[b,f][1,4]oxazepin-11-amine]	2.0	56	112				
O=C(CNC1=Nc2ccccc2Oc2ccc(Cl)cc21)N1CCCC1 [SW24, 2-((2-chlorodibenzo[b,f][1,4]oxazepin-11-yl)amino)-1-(pyrrolidin-1-yl)ethan-1-one]		> 90	> 90				
Clc1ccc2c(c1)C(NCC1CC1)=Nc1ccccc1O2 [SW11, 2-chloro-N-(cyclopropylmethyl)dibenzo[b,f][1,4]oxazepin-11-amine]	1.7	44	74				
Clc1ccc2c(c1)C(NCCc1ccccc1)=Nc1ccccc1O2 [SW7, 2-chloro-N-phenethyldibenzo[b,f][1,4]oxazepin-11-amine]	2.7	21.2	56.3				
CN1CCN(CCCNC2=Nc3cccnc3Nc3ccc(Cl)cc32)CC1 [SW31, 8-chloro-N-(3-(4-methylpiperazin-1-yl)propyl)-11H-benzo[e]pyrido[3,2-b][1,4]diazepin-6-amine]	18.7			7	129		
Clc1ccc2c(c1)C(NCCN1CCCC1)=Nc1ccccc1O2 [SW2, 2-chloro-N-(2-(pyrrolidin-1-yl)ethyl)dibenzo[b,f][1,4]oxazepin-11-amine]	5.4	4.9	26.6				
Clc1ccc(CCNC2=Nc3ccccc3Oc3ccc(Cl)cc32)cc1 [SW20, 2-chloro-N-(4-chlorophenethyl)dibenzo[b,f][1,4]oxazepin-11-amine]	2.0	45.1	91.6				
